Source: US7932270B2 (Cytokinetics, Inc., priority 2006, dated 2011)

Biological target: T1, chicken gizzard smooth muscle myosin subfragment-1 chemically crosslinked to cardiac or skeletal actin (Gallus gallus, UniProt P10587)
T1 construct: chicken gizzard smooth muscle myosin subfragment-1; from tissue; host or cells: chicken gizzard
Assay: Smooth muscle myosin ATPase dose response assay (pyruvate kinase/horseradish peroxidase/pyruvate oxidase-coupled, amplex red fluorescence)
Assay type: biochemical
Conditions: read-out: IC50 Arithmetic Mean
Procedure, shortened: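 Chicken gizzard myosin S1 crosslinked to cardiac or skeletal actin, titrated to a set hydrolysis rate; 0.15 mM ATP, 12 mM PIPES pH 7.00, 100 mM KCl, 2 mM MgCl2. Pyruvate kinase/pyruvate oxidase/HRP coupling with amplex red fluorescence; IC50 from 4-parameter fit.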

T1 sequence (P02607 2-151): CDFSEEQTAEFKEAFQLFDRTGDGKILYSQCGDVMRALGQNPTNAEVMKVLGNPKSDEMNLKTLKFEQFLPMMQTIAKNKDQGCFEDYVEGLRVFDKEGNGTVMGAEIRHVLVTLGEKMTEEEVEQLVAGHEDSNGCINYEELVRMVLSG
T1 sequence (P10587 84-789): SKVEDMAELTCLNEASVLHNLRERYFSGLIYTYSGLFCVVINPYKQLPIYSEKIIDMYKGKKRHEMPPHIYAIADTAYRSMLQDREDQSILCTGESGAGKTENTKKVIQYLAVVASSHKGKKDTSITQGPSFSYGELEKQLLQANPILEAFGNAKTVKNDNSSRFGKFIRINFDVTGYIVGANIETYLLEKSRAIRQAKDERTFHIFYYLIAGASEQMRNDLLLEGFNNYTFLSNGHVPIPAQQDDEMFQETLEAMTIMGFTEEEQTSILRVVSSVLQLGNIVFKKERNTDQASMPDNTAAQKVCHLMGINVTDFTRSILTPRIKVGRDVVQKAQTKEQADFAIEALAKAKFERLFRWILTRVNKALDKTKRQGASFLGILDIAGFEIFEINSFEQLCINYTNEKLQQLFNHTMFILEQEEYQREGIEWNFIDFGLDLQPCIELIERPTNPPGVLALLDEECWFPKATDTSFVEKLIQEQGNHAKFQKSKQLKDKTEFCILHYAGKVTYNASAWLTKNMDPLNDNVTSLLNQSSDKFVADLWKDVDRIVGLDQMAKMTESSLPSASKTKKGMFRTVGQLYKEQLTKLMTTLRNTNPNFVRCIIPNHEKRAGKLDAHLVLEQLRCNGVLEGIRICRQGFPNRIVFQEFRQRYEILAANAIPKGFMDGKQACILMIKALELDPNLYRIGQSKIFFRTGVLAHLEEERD

| Compound | IC50 |
| --- | --- |
| Cn1nccc1CNC(=O)c1ccc(-c2ccccc2C#N)nc1NCCc1cccc(F)c1 [(6-(2-cyanophenyl)-2-{[2-(3-fluorophenyl)ethyl]amino}(3-pyridyl))-N-[(1-methylpyrazol-5-yl)methyl]carboxamide] | 31 nM |
| CN1CCN(CCCNC(=O)c2ccc(-c3ccccc3C#N)nc2NCCc2cccc(F)c2)CC1 [(6-(2-cyanophenyl)-2-{[2-(3-fluorophenyl)ethyl]amino}(3-pyridyl))-N-[3-(4-methylpiperazinyl)propyl]carboxamide] | 3060 nM |
| CS(=O)(=O)N1CC(=O)N[C@@H](CNC(=O)c2ccc(-c3ccccc3C#N)nc2NCCc2cccc(F)c2)C1 (stereo in doubt) [(6-(2-cyanophenyl)-2-{[2-(3-fluorophenyl)ethyl]amino}(3-pyridyl))-N-{[4-(methylsulfonyl)-6-oxopiperazin-2-yl]methyl}carboxamide] | 2560 nM |
| O=C(NCc1cccnc1)c1ccc(-c2cccc(F)c2)nc1NCCc1cccc(F)c1 [(6-(3-fluorophenyl)-2-{[2-(3-fluorophenyl)ethyl]amino}(3-pyridyl))-N-(3-pyridylmethyl)carboxamide] | 157 nM |
| CC(C)(C)OC(=O)NCCCN1CCC(CNC(=O)c2ccc(-c3cn[nH]c3)nc2NCCc2cccc(F)c2)C1=O (stereo not shown) [N-[(1-{3-[(tert-butoxy)carbonylamino]propyl}-2-oxopyrrolidin-3-yl)methyl](2-{[2-(3-fluorophenyl)ethyl]amino}-6-pyrazol-4-yl(3-pyridyl))carboxamide] | 589 nM |
| O=C(NCc1cccnc1)c1ccc(-c2cc(CO)ccc2Cl)nc1NCCc1cccc(F)c1 [(6-[2-chloro-5-(hydroxymethyl)phenyl]-2-{[2-(3-fluorophenyl)ethyl]amino}(3-pyridyl))-N-(3-pyridylmethyl)carboxamide] | 1190 nM |
| N#Cc1sccc1-c1ccc(C(=O)NCc2cccnc2)c(NCCc2cccc(F)c2)n1 [(6-(2-cyano(3-thienyl))-2-{[2-(3-fluorophenyl)ethyl]amino}(3-pyridyl))-N-(3-pyridylmethyl)carboxamide] | 33 nM |
| Cc1cc(C(=O)NCc2cccnc2CN)c(NCCc2cccc(F)c2)nc1-c1cnn(C)c1 [N-{[2-(aminomethyl)(3-pyridyl)]methyl}(2-{[2-(3-fluorophenyl)ethyl]amino}-5-methyl-6-(1-methylpyrazol-4-yl)(3-pyridyl))carboxamide] | 129 nM |
| CC(C)(C)OC(=O)NCCCNC(=O)CNC(=O)c1ccc(-c2ccccc2C#N)nc1NCCc1cccc(F)c1 [N-{3-[(tert-butoxy)carbonylamino]propyl}-2-[(6-(2-cyanophenyl)-2-{[2-(3-fluorophenyl)ethyl]amino}(3-pyridyl))carbonylamino]acetamide] | 9880 nM |
| CC(C)(C)OC(=O)NCC(=O)N1CCCC[C@H]1CNC(=O)c1ccc(-c2ccccc2C#N)nc1NCCc1cccc(F)c1 [N-[((2S)-1-{2-[(tert-butoxy)carbonylamino]acetyl}(2-piperidyl))methyl](6-(2-cyanophenyl)-2-{[2-(3-fluorophenyl)ethyl]amino}(3-pyridyl))carboxamide] | 17000 nM |
| N#Cc1ccccc1-c1ccc(C(=O)NCc2ccc(N3CCCC3)nc2)c(NCCc2cccc(F)c2)n1 [(6-(2-cyanophenyl)-2-{[2-(3-fluorophenyl)ethyl]amino}(3-pyridyl))-N-[(6-pyrrolidinyl(3-pyridyl))methyl]carboxamide] | 66600 nM |
| O=C(NCc1cccnc1)c1ccc(-c2ccccc2)nc1NCCN1CCCC1=O [(2-{[2-(2-oxopyrrolidinyl)ethyl]amino}-6-phenyl(3-pyridyl))-N-(3-pyridylmethyl)carboxamide] | 10600 nM |
| CC(C)(C)OC(=O)NCCn1nccc1CNC(=O)c1ccc(-c2ccccc2C#N)nc1NCCc1cccc(F)c1 [N-[(1-{2-[(tert-butoxy)carbonylamino]ethyl}pyrazol-5-yl)methyl](6-(2-cyanophenyl)-2-{[2-(3-fluorophenyl)ethyl]amino}(3-pyridyl))carboxamide] | 2200 nM |
| NC(=O)CNCC(O)c1ccc(-c2ccccc2)nc1NCCc1cccc(F)c1 (stereo not shown) [2-{[2-(2-{[2-(3-fluorophenyl)ethyl]amino}-6-phenyl(3-pyridyl))-2-hydroxyethyl]amino}acetamide] | 51600 nM |
| O=C(NCc1cccnc1)c1cc(Br)c(-c2cn[nH]c2)nc1NCCc1cccc(F)c1 [(5-bromo-2-{[2-(3-fluorophenyl)ethyl]amino}-6-pyrazol-4-yl(3-pyridyl))-N-(3-pyridylmethyl)carboxamide] | 21 nM |
| CN(CCNC(=O)c1ccc(-c2ccccc2C#N)nc1NCCc1cccc(F)c1)C(=O)CNC(=O)OC(C)(C)C [2-[(tert-butoxy)carbonylamino]-N-{2-[(6-(2-cyanophenyl)-2-{[2-(3-fluorophenyl)ethyl]amino}(3-pyridyl))carbonylamino]ethyl}-N-methylacetamide] | 15300 nM |
| C[C@H](CNC(=O)c1cc(F)c(-c2cnn(C)c2)nc1NCCc1cccc(F)c1)NC(=O)CN(C)C | 121 nM |
| COC(=O)[C@@H](CNC(=O)c1cc(F)c(-c2cnn(C)c2)nc1NCCc1cccc(F)c1)NC(=O)OC(C)(C)C [methyl (2R)-2-[(tert-butoxy)carbonylamino]-3-[(5-fluoro-2-{[2-(3-fluorophenyl)ethyl]amino}-6-(1-methylpyrazol-4-yl)(3-pyridyl))carbonylamino]propanoate] | 90800 nM |
| N#Cc1cccc(F)c1-c1ccc(C(=O)NCc2cccnc2)c(NCCc2cccc(F)c2)n1 [(6-(2-cyano-6-fluorophenyl)-2-{[2-(3-fluorophenyl)ethyl]amino}(3-pyridyl))-N-(3-pyridylmethyl)carboxamide] | 86 nM |
| N#Cc1ccccc1-c1ccc(C(=O)NCC2CCN(C(=O)CN)C2)c(NCCc2cccc(F)c2)n1 (stereo not shown) [N-{[1-(2-aminoacetyl)pyrrolidin-3-yl]methyl}(6-(2-cyanophenyl)-2-{[2-(3-fluorophenyl)ethyl]amino}(3-pyridyl))carboxamide] | 203 nM |
| CC(=O)c1ccc(-c2ccc(C(=O)NCc3cccnc3)c(NCCc3cccc(F)c3)n2)s1 [(6-(5-acetyl(2-thienyl))-2-{[2-(3-fluorophenyl)ethyl]amino}(3-pyridyl))-N-(3-pyridylmethyl)carboxamide] | 178 nM |

Further lines, results first:

| IC50 | Compound |
| --- | --- |
| 27 nM | Cn1cc(-c2nc(NCCc3cccc(F)c3)c(C(=O)NCc3cccc(CN)n3)cc2Br)cn1 [N-{[6-(aminomethyl)(2-pyridyl)]methyl}(5-bromo-2-{[2-(3-fluorophenyl)ethyl]amino}-6-(1-methylpyrazol-4-yl)(3-pyridyl))carboxamide] |
| 24 nM | NCCc1cccc(CNC(=O)c2ccc(-c3ccccc3)nc2NCCc2cccc(F)c2)n1 [N-{[6-(2-aminoethyl)(2-pyridyl)]methyl}(2-{[2-(3-fluorophenyl)ethyl]amino}-6-phenyl(3-pyridyl))carboxamide] |
| 86000 nM | COC(=O)[C@H](C)CNC(=O)c1cc(F)c(-c2cnn(C)c2)nc1N [methyl (2R)-3-{[2-amino-5-fluoro-6-(1-methylpyrazol-4-yl)(3-pyridyl)]carbonylamino}-2-methylpropanoate] |
| 2320 nM | CN1CCN(C(=O)CCCN)[C@@H](CNC(=O)c2ccc(-c3ccccc3C#N)nc2NCCc2cccc(F)c2)C1 [N-{[(2S)-1-(4-aminobutanoyl)-4-methylpiperazin-2-yl]methyl}(6-(2-cyanophenyl)-2-{[2-(3-fluorophenyl)ethyl]amino}(3-pyridyl))carboxamide] |
| 4280 nM | COC(=O)N1CCCC[C@@H]1CNC(=O)c1ccc(-c2ccccc2C#N)nc1NCCc1cccc(F)c1 [methyl (2R)-2-{[(6-(2-cyanophenyl)-2-{[2-(3-fluorophenyl)ethyl]amino}(3-pyridyl))carbonylamino]methyl}piperidinecarboxylate] |
| 1230 nM | Cc1cc(C(=O)NC[C@H]2CCC(=O)N2CCCN)c(NCCc2cccc(F)c2)nc1-c1ccccc1C#N [N-{[(2R)-1-(3-aminopropyl)-5-oxopyrrolidin-2-yl]methyl}(6-(2-cyanophenyl)-2-{[2-(3-fluorophenyl)ethyl]amino}-5-methyl(3-pyridyl))carboxamide] |
| 707 nM | NCc1ncccc1CNC(=O)c1ccc(-c2cnn(CCO)c2)nc1NCCc1cccc(F)c1 [N-{[2-(aminomethyl)(3-pyridyl)]methyl}(2-{[2-(3-fluorophenyl)ethyl]amino}-6-[1-(2-hydroxyethyl)pyrazol-4-yl](3-pyridyl))carboxamide] |
| 1060 nM | COc1ccc(-c2ccc(C(=O)NCc3cccnc3)c(NCCc3ccccn3)n2)cc1 [{6-(4-methoxyphenyl)-2-[(2-(2-pyridyl)ethyl)amino](3-pyridyl)}-N-(3-pyridylmethyl)carboxamide] |
| 211 nM | Cn1cc(-c2nc(NCCc3cccc(F)c3)c(C(=O)NC[C@H]3CCCN3C(=O)CCCN)cc2C#N)cn1 [N-{[(2R)-1-(4-aminobutanoyl)pyrrolidin-2-yl]methyl}(5-cyano-2-{[2-(3-fluorophenyl)ethyl]amino}-6-(1-methylpyrazol-4-yl)(3-pyridyl))carboxamide] |
| 25 nM | N#Cc1ccccc1-c1ccc(C(=O)NC[C@H]2CCCN2C(=O)CN)c(NCCc2cccc(F)c2)n1 [N-{[(2R)-1-(2-aminoacetyl)pyrrolidin-2-yl]methyl}(6-(2-cyanophenyl)-2-{[2-(3-fluorophenyl)ethyl]amino}(3-pyridyl))carboxamide] |
| 399 nM | N#Cc1ccccc1-c1ccc(C(=O)NC[C@H]2CCCCN2C(=O)[C@H](N)CCN)c(NCCc2cccc(F)c2)n1 [N-{[(2R)-1-((2R)-2,4-diaminobutanoyl)(2-piperidyl)]methyl}(6-(2-cyanophenyl)-2-{[2-(3-fluorophenyl)ethyl]amino}(3-pyridyl))carboxamide] |
| 84500 nM | COCc1ccccc1-c1ccc(C(=O)NCc2cccnc2)c(NCCc2ccccn2)n1 [{6-[2-(methoxymethyl)phenyl]-2-[(2-(2-pyridyl)ethyl)amino](3-pyridyl)}-N-(3-pyridylmethyl)carboxamide] |
| 2290 nM | O=C(NCc1cccnc1)c1ccc(-c2ccc(C(F)(F)F)cc2)nc1NCCc1ccccn1 [{2-[(2-(2-pyridyl)ethyl)amino]-6-[4-(trifluoromethyl)phenyl](3-pyridyl)}-N-(3-pyridylmethyl)carboxamide] |
